Laboratory results: PubChem BioAssay (NCI)
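Following 48 hours of exposure in 96-well plates, responses at five concentrations were used to interpolate endpoints linearly. The concentration for 50% growth inhibition is given as GI50. The concentration for full growth arrest is given as TGI.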

Assays:
Assay in all cases: NCI tumour cell line growth inhibition, 48 h
NCI/ADR-RES ovarian = test system: NCI/ADR-RES ovarian
A549 NSCLC = test system: A549 NSCLC
LOX IMVI melanoma = test system: LOX IMVI melanoma
MDA-MB-231 breast = test system: MDA-MB-231 breast
HOP-62 NSCLC = test system: HOP-62 NSCLC
IGROV1 ovarian = test system: IGROV1 ovarian
MOLT-4 leukemia = test system: MOLT-4 leukemia
HOP-92 NSCLC = test system: HOP-92 NSCLC
SR leukemia = test system: SR leukemia
SF-268 CNS = test system: SF-268 CNS
DU-145 prostate = test system: DU-145 prostate
HL-60(TB) leukemia = test system: HL-60(TB) leukemia
UO-31 renal = test system: UO-31 renal
SK-MEL-28 melanoma = test system: SK-MEL-28 melanoma
EKVX NSCLC = test system: EKVX NSCLC
CAKI-1 renal = test system: CAKI-1 renal
SK-MEL-5 melanoma = test system: SK-MEL-5 melanoma
786-0 renal = test system: 786-0 renal
SF-295 CNS = test system: SF-295 CNS
SN12C renal = test system: SN12C renal
HCT-116 colon = test system: HCT-116 colon
BT-549 breast = test system: BT-549 breast
OVCAR-3 ovarian = test system: OVCAR-3 ovarian
HS 578T breast = test system: HS 578T breast
NCI-H522 lung = test system: NCI-H522 lung
ACHN renal = test system: ACHN renal
TK-10 renal = test system: TK-10 renal
UACC-62 melanoma = test system: UACC-62 melanoma
OVCAR-4 ovarian = test system: OVCAR-4 ovarian
MCF7 breast = test system: MCF7 breast

O=C(NO)c1ccc(Cn2ccc3c(NCc4ccccc4)ncnc32)cc1
GI50 (NCI/ADR-RES ovarian): 2.6 µM | TGI (NCI/ADR-RES ovarian): 12.7 µM | GI50 (A549 NSCLC): 4.34 µM | TGI (A549 NSCLC): 20.6 µM | GI50 (LOX IMVI melanoma): 4.2 µM | TGI (LOX IMVI melanoma): 16.1 µM | GI50 (MDA-MB-231 breast): 5.2 µM | TGI (MDA-MB-231 breast): 22 µM | GI50 (HOP-62 NSCLC): 4.13 µM | TGI (HOP-62 NSCLC): 20.9 µM | GI50 (IGROV1 ovarian): 4.14 µM | TGI (IGROV1 ovarian): 14.7 µM | GI50 (MOLT-4 leukemia): 2.41 µM | TGI (MOLT-4 leukemia): 10.3 µM | GI50 (HOP-92 NSCLC): 4.07 µM | TGI (HOP-92 NSCLC): 18.5 µM | GI50 (SR leukemia): 0.937 µM | TGI (SR leukemia): > 103 µM | GI50 (SF-268 CNS): 8.8 µM | TGI (SF-268 CNS): 36.5 µM | GI50 (DU-145 prostate): 4.06 µM | TGI (DU-145 prostate): > 103 µM | GI50 (HL-60(TB) leukemia): 2.34 µM | TGI (HL-60(TB) leukemia): 6.38 µM | GI50 (UO-31 renal): 3.93 µM | TGI (UO-31 renal): 16.6 µM | GI50 (SK-MEL-28 melanoma): 3.77 µM | TGI (SK-MEL-28 melanoma): 17.5 µM | GI50 (EKVX NSCLC): 5.93 µM | TGI (EKVX NSCLC): 19.8 µM | GI50 (CAKI-1 renal): 3.21 µM | TGI (CAKI-1 renal): 15.2 µM | GI50 (SK-MEL-5 melanoma): 1.9 µM | TGI (SK-MEL-5 melanoma): 6.37 µM | GI50 (786-0 renal): 8.63 µM | TGI (786-0 renal): 26.6 µM | GI50 (SF-295 CNS): 3.49 µM | TGI (SF-295 CNS): 12.7 µM | GI50 (SN12C renal): 4.41 µM | TGI (SN12C renal): 17.3 µM | GI50 (HCT-116 colon): 3.4 µM | TGI (HCT-116 colon): 24.9 µM | GI50 (BT-549 breast): 13.7 µM | TGI (BT-549 breast): 31.7 µM | GI50 (OVCAR-3 ovarian): 2.17 µM | TGI (OVCAR-3 ovarian): 5.23 µM | GI50 (HS 578T breast): 2.27 µM | TGI (HS 578T breast): 7.62 µM | GI50 (NCI-H522 lung): 1.93 µM | TGI (NCI-H522 lung): 7.69 µM | GI50 (ACHN renal): 4.07 µM | TGI (ACHN renal): 15.2 µM | GI50 (TK-10 renal): 3.2 µM | TGI (TK-10 renal): 17.8 µM | GI50 (UACC-62 melanoma): 2.39 µM | TGI (UACC-62 melanoma): 12.2 µM | GI50 (OVCAR-4 ovarian): 12.2 µM | TGI (OVCAR-4 ovarian): 96.2 µM | GI50 (MCF7 breast): 3.25 µM
